Like-named read-outs stand apart in the source and are kept apart here.
Assays:
[1] = test system: Stenotrophomonas sp. strain 2L; format: cell-based
[2] = test system: Brevundimonas sp. strain 2N; format: cell-based
[3] = test system: investigated strains of bacteria; format: cell-based
[4] = test system: Pseudomonas sp. strain 4G; format: cell-based
[5] = test system: Pseudomonas sp. strain 3G; format: cell-based
[6] = test system: Stenotrophomonas sp. strain 5L; format: cell-based
[7] = test system: Stenotrophomonas sp. strain 6L; format: cell-based
[8] = test system: Stenotrophomonas sp. strain 3N; format: cell-based
[9] = test system: Brevundimonas sp. strain 5N; format: cell-based
[10] = test system: Brevundimonas sp. strain 6N; format: cell-based
[11] = test system: Arthrobacter sp. strain 1N; format: cell-based
[12] = test system: Achromobacter sp. strain 4P; format: cell-based
[13] = test system: model strain Escherichia coli; details: according to Spain, 2003; cited from earlier work
[14] = test system: Stenotrophomonas sp. strain 2L; experiment: Disc diffusion antibiotic susceptibility; format: cell-based
Procedure: (§1) A disc diffusion method was performed to determine the susceptibility of bacteria to the selected antibiotics. We used discs soaked with the antibiotic of a well-defined concentration (BioMerioux) (Table 2) and the minimal inhibitory concentration test was carried out, using E-tests (Oxoid) (Table 3).
(§2) A McFarland's 0.5 inoculum was prepared from each strain's culture, using a densitometer (EMO). Then, using sterile cotton swabs, the suspension of bacterial cells was spread on dishes with ready-to-use MHA medium (Oxoid), and after 15 minutes, discs soaked with antibiotics at defined concentrations were placed on them.
(§3) The dishes were incubated at 25-30° C., and the results were read after 24 and 48 hours. The measure of susceptibility of a tested strain to a given antibiotic was the size of the inhibition zone which formed around the disc soaked with the antibiotic. The results read (sizes of zones measured in mm) were compared with the data contained in the European Committee on Antimicrobial Susceptibility Testing (EUCAST) standards from 2010 (Table 4).
(§4) The measure of susceptibility of the tested bacterial strain to a given antibiotic was the size of the inhibition zone which formed around the disc (Table 5).

[15] = test system: Brevundimonas sp. strain 5N; experiment: Disc diffusion antibiotic susceptibility; format: cell-based
Procedure: as §1, §2, §3, §4

[16] = test system: Brevundimonas sp. strain 2N; experiment: Disc diffusion antibiotic susceptibility; format: cell-based
Procedure: as §1, §2, §3, §4

[17] = test system: Pseudomonas sp. strain 3G; experiment: Disc diffusion antibiotic susceptibility; format: cell-based
Procedure: as §1, §2, §3, §4

[18] = test system: Stenotrophomonas sp. strain 3N; experiment: Disc diffusion antibiotic susceptibility; format: cell-based
Procedure: as §1, §2, §3, §4

[19] = test system: Stenotrophomonas sp. strain 5L; experiment: Disc diffusion antibiotic susceptibility; format: cell-based
Procedure: as §1, §2, §3, §4

[20] = test system: Pseudomonas sp. strain 4G; experiment: Disc diffusion antibiotic susceptibility; format: cell-based
Procedure: as §1, §2, §3, §4

[21] = test system: Achromobacter sp. strain 4P; experiment: Disc diffusion antibiotic susceptibility; format: cell-based
Procedure: as §1, §2, §3, §4

[22] = test system: Brevundimonas sp. strain 6N; experiment: Disc diffusion antibiotic susceptibility; format: cell-based
Procedure: as §1, §2, §3, §4

[23] = test system: Arthrobacter sp. strain 1N; experiment: Disc diffusion antibiotic susceptibility; format: cell-based
Procedure: as §1, §2, §3, §4

[24] = test system: Stenotrophomonas sp. strain 6L; experiment: Disc diffusion antibiotic susceptibility; format: cell-based
Procedure: as §1, §2, §3, §4

[25] = test system: Stenotrophomonas sp. strain 2L; experiment: Antibiotic MIC by E-test; format: cell-based; details: 24 h
Procedure: as §1
(§5) In the next stage of the research, MIC values of a given antibiotic for the investigated strains were determined, meaning the lowest concentration of the drug, expressed in mg/L, determined in vitro, which inhibits the growth of bacteria at a defined inoculum density, within a given time (Hryniewicz et at, 2001). These studies allow for the closer determination of the degree of susceptibility of bacteria to the applied antibiotics.
(§6) A bacterial suspension was evenly distributed on dishes with ready-to-use MHA medium (Oxoid), and then plastic testing strips (E-tests) soaked with an antibiotic with a concentration gradient were placed thereon. The dishes were incubated at 25-30° C. for 24 h, and the test results were read after this time.
(§7) The intersection of elliptical zone of inhibition, which appeared around the test strip, with the value indicator on the gradient scale of the strip, determined the lowest concentration of antibiotic, inhibiting growth of the microorganism (MIC). Similarly as in the disc diffusion method, the obtained results were compared with the guidelines contained in the relevant standards.

[26] = test system: Brevundimonas sp. strain 5N; experiment: Antibiotic MIC by E-test; format: cell-based; details: 24 h
Procedure: as §1, §5, §6, §7

[27] = test system: Brevundimonas sp. strain 2N; experiment: Antibiotic MIC by E-test; format: cell-based; details: 24 h
Procedure: as §1, §5, §6, §7

[28] = test system: Pseudomonas sp. strain 3G; experiment: Antibiotic MIC by E-test; format: cell-based; details: 24 h
Procedure: as §1, §5, §6, §7

[29] = test system: Stenotrophomonas sp. strain 3N; experiment: Antibiotic MIC by E-test; format: cell-based; details: 24 h
Procedure: as §1, §5, §6, §7

[30] = test system: Stenotrophomonas sp. strain 5L; experiment: Antibiotic MIC by E-test; format: cell-based; details: 24 h
Procedure: as §1, §5, §6, §7

[31] = test system: Pseudomonas sp. strain 4G; experiment: Antibiotic MIC by E-test; format: cell-based; details: 24 h
Procedure: as §1, §5, §6, §7

[32] = test system: Achromobacter sp. strain 4P; experiment: Antibiotic MIC by E-test; format: cell-based; details: strain 4P, E-test, 24 h
Procedure: as §1, §5, §6, §7

[33] = test system: Brevundimonas sp. strain 6N; experiment: Antibiotic MIC by E-test; format: cell-based; details: 24 h
Procedure: as §1, §5, §6, §7

[34] = test system: Arthrobacter sp. strain 1N; experiment: Antibiotic MIC by E-test; format: cell-based; details: strain 1N, E-test, 24 h
Procedure: as §1, §5, §6, §7

[35] = test system: Stenotrophomonas sp. strain 6L; experiment: Antibiotic MIC by E-test; format: cell-based; details: 24 h
Procedure: as §1, §5, §6, §7

[36] = Stenotrophomonas, read-out: MIC threshold values for a given antibiotic
[37] = Brevundimonas, read-out: MIC threshold values for a given antibiotic
[38] = Pseudomonas, read-out: MIC threshold values for a given antibiotic

[Cl][Ni][Cl] [Ni(II), Nickel chloride]
1 mM/L: MIC threshold values of heavy metals ([1]; strain 2L, 24 h) | MIC threshold values of heavy metals ([2]; strain 2N, 24 h) | MIC threshold values of heavy metals ([4]; 24 h) | MIC threshold values of heavy metals ([5]; 24 h) | MIC threshold values of heavy metals ([6]; strain 5L, 24 h) | MIC threshold values of heavy metals ([7]; strain 6L, 24 h) | MIC threshold values of heavy metals ([8]; strain 3N, 24 h) | MIC threshold values of heavy metals ([9]; strain 5N, 24 h) | MIC threshold values of heavy metals ([10]; strain 6N, 24 h) | MIC threshold values of heavy metals ([11]; strain 1N, 24 h) | MIC threshold values of heavy metals ([12]; strain 4P, 24 h) | MIC [13]
semi-susceptible: Susceptibility of the investigated strains to the heavy metal ([3]; compared with literature data for the model strain)
2 mM/L: MIC threshold values of heavy metals ([2]; strain 2N, 48 h) | MIC threshold values of heavy metals ([4]; 48 h) | MIC threshold values of heavy metals ([5]; 48 h) | MIC threshold values of heavy metals ([7]; strain 6L, 48 h) | MIC threshold values of heavy metals ([8]; strain 3N, 48 h) | MIC threshold values of heavy metals ([10]; strain 6N, 48 h) | MIC threshold values of heavy metals ([11]; strain 1N, 48 h)

CN(C)[C@@H]1C(O)=C(C(N)=O)C(=O)[C@@]2(O)C(O)=C3C(=O)c4c(O)cccc4[C@@](C)(O)[C@H]3C[C@@H]12 [TE, tetracycline]
8 µg/mL: MIC [30, 36]
19 mm: Size of the growth inhibition zone ([18]; 24 h) | Size of the growth inhibition zone ([19]; 24 h) | Size of the growth inhibition zone ([20]; 24 h) | Size of the growth inhibition zone ([21]; 24 h)
18 mm: Size of the growth inhibition zone ([15]; 24 h) | Size of the growth inhibition zone ([16]; 24 h)
6 µg/mL: MIC [25, 36] | MIC [26, 37] | MIC [27, 37] | MIC [28, 38] | MIC [29, 36] | MIC [31, 38] | MIC [33, 37] | MIC ([34]; Arthrobacter, read-out: MIC threshold values for a given antibiotic) | MIC [35, 36]
12 µg/mL: MIC ([32]; Achromobacter, read-out: MIC threshold values for a given antibiotic)
0 mm: Size of the growth inhibition zone ([14]; 48 h) | Size of the growth inhibition zone ([15]; 48 h) | Size of the growth inhibition zone ([16]; 48 h) | Size of the growth inhibition zone ([17]; 48 h) | Size of the growth inhibition zone ([18]; 48 h) | Size of the growth inhibition zone ([19]; 48 h) | Size of the growth inhibition zone ([20]; 48 h) | Size of the growth inhibition zone ([21]; 48 h) | Size of the growth inhibition zone ([22]; 48 h) | Size of the growth inhibition zone ([23]; 48 h) | Size of the growth inhibition zone ([24]; 48 h)
17 mm: Size of the growth inhibition zone ([14]; 24 h) | Size of the growth inhibition zone ([17]; 24 h) | Size of the growth inhibition zone ([22]; 24 h) | Size of the growth inhibition zone ([23]; 24 h) | Size of the growth inhibition zone ([24]; 24 h)

O=S(=O)([O-])[O-].[Zn+2] [Zn(II), Zinc sulphate]
2(3) mM/L: MIC threshold values of heavy metals [10]
1 mM/L: MIC [13]
resistant: Susceptibility of the investigated strains to the heavy metal [3]
3(5) mM/L: MIC threshold values of heavy metals [12]
4(5) mM/L: MIC threshold values of heavy metals [6] | MIC threshold values of heavy metals [7]
3(4) mM/L: MIC threshold values of heavy metals [1] | MIC threshold values of heavy metals [2] | MIC threshold values of heavy metals [8]
2(4) mM/L: MIC threshold values of heavy metals [9]
4 mM/L: MIC threshold values of heavy metals ([4]; 24 h) | MIC threshold values of heavy metals ([5]; 24 h) | MIC threshold values of heavy metals [11]

gentamicin [CN]
25 mm: Size of the growth inhibition zone ([18]; 24 h)
21 mm: Size of the growth inhibition zone ([16]; 48 h) | Size of the growth inhibition zone ([21]; 48 h)
24 mm: Size of the growth inhibition zone ([14]; 24 h) | Size of the growth inhibition zone ([15]; 24 h) | Size of the growth inhibition zone ([16]; 24 h)
0 mm: Size of the growth inhibition zone ([18]; 48 h) | Size of the growth inhibition zone ([20]; 24 h) | Size of the growth inhibition zone ([24]; 24 h)
19 mm: Size of the growth inhibition zone ([14]; 48 h)
4 µg/mL: MIC threshold values for a given antibiotic [25] | MIC threshold values for a given antibiotic [26] | MIC threshold values for a given antibiotic [32]
20 mm: Size of the growth inhibition zone ([17]; 48 h) | Size of the growth inhibition zone ([22]; 48 h)
8 µg/mL: MIC threshold values for a given antibiotic [27] | MIC threshold values for a given antibiotic [29] | MIC threshold values for a given antibiotic [30] | MIC threshold values for a given antibiotic [33] | MIC threshold values for a given antibiotic [34]
≧256 μg/ml: MIC threshold values for a given antibiotic [28] | MIC threshold values for a given antibiotic [31]
18 mm: Size of the growth inhibition zone ([23]; 48 h)
22 mm: Size of the growth inhibition zone ([17]; 24 h) | Size of the growth inhibition zone ([19]; 24 h) | Size of the growth inhibition zone ([21]; 24 h)
256 µg/mL: MIC threshold values for a given antibiotic [35]
23 mm: Size of the growth inhibition zone ([22]; 24 h) | Size of the growth inhibition zone ([23]; 24 h)
